Experimental data published in US7067518B2, “Pyridinyl-methyl-ethyl cyclohexanecarboxamides as serotonergic agents” (Wyeth, priority 2002, dated 2006).
Counter-ions that a name gives are not always drawn.

Columns and labels:
[1] = biological target: T1, human 5-HT1A receptor (Homo sapiens, UniProt P08908); test: 5-HT1A affinity: displacement of [3H] 8-OHDPAT; assay type: binding; details: CHO cells stably transfected with the human 5-HT1A receptor
T1 construct: expressed in transfected cells; host or cells: CHO cells (stably transfected)
T1 sequence (P08908 1-422): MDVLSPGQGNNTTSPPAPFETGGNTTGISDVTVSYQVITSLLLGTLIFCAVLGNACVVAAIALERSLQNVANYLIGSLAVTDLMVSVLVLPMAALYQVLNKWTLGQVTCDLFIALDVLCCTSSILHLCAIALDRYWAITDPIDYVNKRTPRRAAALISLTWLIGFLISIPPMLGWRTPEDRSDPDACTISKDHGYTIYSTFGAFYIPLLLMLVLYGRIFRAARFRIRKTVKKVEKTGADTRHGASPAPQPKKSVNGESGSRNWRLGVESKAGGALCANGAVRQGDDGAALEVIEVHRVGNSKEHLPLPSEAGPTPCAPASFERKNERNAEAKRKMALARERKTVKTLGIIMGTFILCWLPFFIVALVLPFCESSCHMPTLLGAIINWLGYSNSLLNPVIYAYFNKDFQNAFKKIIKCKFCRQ
Excerpt: Affinity for the serotonin 5-HT1A receptor was established by assaying the test compound's ability to displace [^3H] 8-OHDPAT from its binding site on the receptor complex in CHO cells stably transfected with the human 5-HT1A receptor following the procedure described by J. Dunlop, Y. Zhang, D. Smith and L. Schechter (Eur. J. Pharmacol., submitted; variation of a procedure described by J. Zgombick et al., Naunyn-Schmiedeberg's Arch. Pharmacol., 354, 226–236 (1996)).

[2] = biological target: T1, human 5-HT1A receptor; test: Agonist activity: reversal of forskolin stimulation of cAMP; assay type: cell-based; details: reversal of forskolin-stimulated cAMP; CHO cells stably transfected with the human 5-HT1A receptor; RIA
Protocol: EC50 values are determined for the active test compounds. Stably transfected CHO cells were grown in DMEM containing 10% heat inactivated FBS and non-essential amino acids. The cells are plated at a density of […] per well in a 24 well plate and incubated for 2 days in a CO2 incubator. On the second day, the media is replaced with 0.5 mL treatment buffer (DMEM+25 mM HEPES, 5 mM theophylline, 10 mM pargyline) and incubated for 10 minutes at 37° C. Wells are treated with forskolin ([…]) followed immediately by the test compound ([…] for initial screen) and incubated for an additional 10 minutes at 37° C. The reaction is terminated by removal of the media and addition of 0.5 mL ice cold assay buffer (supplied in the RIA kit). Plates are stored at −20° C. prior to assessment of cAMP formation by RIA.

[3] = biological target: T1, human 5-HT1A receptor; test: Antagonist activity: forskolin-stimulated cAMP turnover; assay type: cell-based; details: CHO cells stably transfected with the human 5-HT1A receptor, compounds with no agonist activity (Emax=0%)
Excerpt: Compounds shown to have no agonist activity (Emax=0%) are further analyzed to determine antagonist activity, as measured by the test compound's ability to inhibit forskolin-stimulated cAMP turnover in CHO cells stably transfected with the human 5-HT1A receptor using a procedure described by J. Dunlop, Y. Zhang, D. Smith and L. Schechter [Eur. J. Pharmacol., submitted; variation of a procedure described by J. Zgombick et al., Naunyn-Schmiedeberg's Arch. Pharmacol., 354, 226–236 (1996)].

Compound | melting point [°C] | IC50 [1] [nM] | EC50 [2] [nM] | IC50 [3] [nM]
COc1ccccc1N1CCN(C[C@@H](Cc2ccccn2)NC(=O)C2CCCCC2)CC1 (as salt: fumarate) [Example 14, (R)-Cyclohexanecarboxylic acid {2-[4-(2-methoxy-phenyl)-piperazin-1-yl]-1-pyridin-2-ylmethyl-ethyl}-amide] | 136 to 141 |  |  | 
CC1(C(=O)N[C@H](Cc2cccnc2)CN2CCN(c3cccc4c3OCCO4)CC2)CCCCC1 (as salt: hydrochloride) [Example 22, 1-Methyl-cyclohexanecarboxylic acid {(1R)-2-[4-(2,3-dihydro-benzo[1,4]dioxin-5-yl)-piperazin-1-yl]-1-pyridin-3-ylmethyl-ethyl}-amide] | 188 to 190 |  |  | 
CC1(C(=O)N[C@H](Cc2ccncc2)CN2CCN(c3cccc4c3OCCO4)CC2)CCCCC1 (as salt: hydrochloride) [Example 23, 1-Methyl-cyclohexanecarboxylic acid {(1R)-2-[4-(2,3-dihydro-benzo[1,4]dioxin-5-yl)-piperazin-1-yl]-1-pyridin-4-ylmethyl-ethyl}-amide] | 188 to 190 |  |  | 
CN(C(=O)C1CCCCC1)[C@H](Cc1cccnc1)CN1CCN(c2cccc3c2OCCO3)CC1 (as salt: hydrochloride) [Example 24, Cyclohexanecarboxylic acid {(1R)-2-[4-(2,3-dihydro-benzo[1,4]dioxin-5-yl)-piperazin-1-yl]-1-pyridin-3-ylmethyl-ethyl}-methyl-amide] | 167 to 170 |  |  | 
CN(C(=O)C1CCCCC1)[C@H](Cc1ccncc1)CN1CCN(c2cccc3c2OCCO3)CC1 (as salt: hydrochloride) [Example 25, Cyclohexanecarboxylic acid {(1R)-2-[4-(2,3-dihydro-benzo[1,4]dioxin-5-yl)-piperazin-1-yl]-1-pyridin-4-ylmethyl-ethyl}-methyl-amide] | 167 to 170 |  |  | 
COc1ccccc1N1CCN(C[C@@H](Cc2cccnc2)NC(=O)C2CCCCC2)CC1 (as salt: maleate) [Example 4, (R)-Cyclohexanecarboxylic acid {2-[4-(2-methoxy-phenyl)-piperazin-1-yl]-1-pyridin-3-ylmethyl-ethyl}-amide] | 112 to 115 |  |  | 
COc1ccccc1N1CCN(C[C@@H](Cc2ccncc2)NC(=O)C2CCCCC2)CC1 (as salt: maleate) [Example 9, (R)-Cyclohexanecarboxylic acid {2-[4-(2-methoxy-phenyl)-piperazin-1-yl]-1-pyridin-4-ylmethyl-ethyl}-amide] | 145 to 147 |  |  | 
COc1ccccc1N1CCN(C[C@@H](Cc2cccnc2)NC(=O)C2CCCCC2)CC1 [Example 4, (R)-Cyclohexanecarboxylic acid {2-[4-(2-methoxy-phenyl)-piperazin-1-yl]-1-pyridin-3-ylmethyl-ethyl}-amide] |  | 0.48 | 20.5 | 
COc1ccccc1N1CCN(C[C@@H](Cc2ccncc2)NC(=O)C2CCCCC2)CC1 [Example 9, (R)-Cyclohexanecarboxylic acid {2-[4-(2-methoxy-phenyl)-piperazin-1-yl]-1-pyridin-4-ylmethyl-ethyl}-amide] |  | 0.56 | 141 | 
CC1(C(=O)N[C@H](Cc2cccnc2)CN2CCN(c3cccc4c3OCCO4)CC2)CCCCC1 [Example 22, 1-Methyl-cyclohexanecarboxylic acid {(1R)-2-[4-(2,3-dihydro-benzo[1,4]dioxin-5-yl)-piperazin-1-yl]-1-pyridin-3-ylmethyl-ethyl}-amide] |  | 2.58 | 10.2 | 
CC1(C(=O)N[C@H](Cc2ccncc2)CN2CCN(c3cccc4c3OCCO4)CC2)CCCCC1 [Example 23, 1-Methyl-cyclohexanecarboxylic acid {(1R)-2-[4-(2,3-dihydro-benzo[1,4]dioxin-5-yl)-piperazin-1-yl]-1-pyridin-4-ylmethyl-ethyl}-amide] |  | 1.13 | 108 | 
CN(C(=O)C1CCCCC1)[C@H](Cc1cccnc1)CN1CCN(c2cccc3c2OCCO3)CC1 [Example 24, Cyclohexanecarboxylic acid {(1R)-2-[4-(2,3-dihydro-benzo[1,4]dioxin-5-yl)-piperazin-1-yl]-1-pyridin-3-ylmethyl-ethyl}-methyl-amide] |  | 2.48 |  | 77
CN(C(=O)C1CCCCC1)[C@H](Cc1ccncc1)CN1CCN(c2cccc3c2OCCO3)CC1 [Example 25, Cyclohexanecarboxylic acid {(1R)-2-[4-(2,3-dihydro-benzo[1,4]dioxin-5-yl)-piperazin-1-yl]-1-pyridin-4-ylmethyl-ethyl}-methyl-amide] |  | 3.81 |  | 115

Next, values leading:

melting point [°C] | IC50 [1] [nM] | EC50 [2] [nM] | IC50 [3] [nM] | Compound
150 to 152 |  |  |  | COc1ccccc1N1CCN(C[C@@H](Cc2cccnc2)NC(=O)C2(C)CCCCC2)CC1 (as salt: fumarate) [Example 5, (R)-1-Methyl-cyclohexanecarboxylic acid {2-[4-(2-methoxy-phenyl)-piperazin-1-yl]-1-pyridin-3-ylmethyl-ethyl}-amide]
145 |  |  |  | COc1ccccc1N1CCN(C[C@@H](Cc2ccncc2)NC(=O)C2(C)CCCCC2)CC1 (as salt: fumarate) [Example 10, (R)-1-Methyl-cyclohexanecarboxylic acid {2-[4-(2-methoxy-phenyl)-piperazin-1-yl]-1-pyridin-4-ylmethyl-ethyl}-amide]
135 to 139 |  |  |  | COc1ccccc1N1CCN(C[C@@H](Cc2ccccn2)NC(=O)C2(C)CCCCC2)CC1 (as salt: fumarate) [Example 15, (R)-1-Methyl-cyclohexanecarboxylic acid {2-[4-(2-methoxy-phenyl)-piperazin-1-yl]-1-pyridin-2-ylmethyl-ethyl}-amide]
145 to 146 |  |  |  | COc1ccccc1N1CCN(C[C@@H](Cc2ccccn2)N(C)C(=O)C2(C)CCCCC2)CC1 (as salt: fumarate) [Example 18, 1-Methyl-cyclohexanecarboxylic acid {(1R)-2-[4-(2-methoxy-phenyl)-piperazin-1-yl]-1-pyridin-2-ylmethyl-ethyl}-methyl-amide]
 | 0.88 |  | 13.2 | COc1ccccc1N1CCN(C[C@@H](Cc2cccnc2)NC(=O)C2(C)CCCCC2)CC1 [Example 5, (R)-1-Methyl-cyclohexanecarboxylic acid {2-[4-(2-methoxy-phenyl)-piperazin-1-yl]-1-pyridin-3-ylmethyl-ethyl}-amide]
 | 0.72 |  | 11.3 | COc1ccccc1N1CCN(C[C@@H](Cc2ccncc2)NC(=O)C2(C)CCCCC2)CC1 [Example 10, (R)-1-Methyl-cyclohexanecarboxylic acid {2-[4-(2-methoxy-phenyl)-piperazin-1-yl]-1-pyridin-4-ylmethyl-ethyl}-amide]
 | 1.26 | 53 |  | COc1ccccc1N1CCN(C[C@@H](Cc2ccccn2)NC(=O)C2CCCCC2)CC1 [Example 14, (R)-Cyclohexanecarboxylic acid {2-[4-(2-methoxy-phenyl)-piperazin-1-yl]-1-pyridin-2-ylmethyl-ethyl}-amide]
 | 0.74 |  | 4.5 | COc1ccccc1N1CCN(C[C@@H](Cc2ccccn2)NC(=O)C2(C)CCCCC2)CC1 [Example 15, (R)-1-Methyl-cyclohexanecarboxylic acid {2-[4-(2-methoxy-phenyl)-piperazin-1-yl]-1-pyridin-2-ylmethyl-ethyl}-amide]
 | 3 |  | 132 | COc1ccccc1N1CCN(C[C@@H](Cc2ccccn2)N(C)C(=O)C2(C)CCCCC2)CC1 [Example 18, 1-Methyl-cyclohexanecarboxylic acid {(1R)-2-[4-(2-methoxy-phenyl)-piperazin-1-yl]-1-pyridin-2-ylmethyl-ethyl}-methyl-amide]
